For one assay, the system named is HUVEC. The experiment in a line: HUVEC proliferation assay ([3H]thymidine incorporation). The format is cell-based, human. The note with it: for IC50: Homo sapiens, Table 5, read-out: Activity in HUVEC Proliferation IC50; for Proliferation (IC50/IC50 Itra): IC50 of analog relative to IC50 of itraconazole; for inhibition of HUVEC proliferation: data not shown. On the procedure:
The activity of the analogs against HUVEC proliferation, an in vitro proxy for angiogenesis inhibition (Table 3) was analyzed. […]
Pooled HUVEC (Lonza) were grown in EGM-2 bullet kit media (Lonza) and used at passage eight or lower. The proliferation assays were conducted as previously described (Nacev, B.; Low, W. K.; Huang, Z.; Su, T.; Su, Z.; Alkuraya, H.; Kasuga, D.; Sun, W.; Trager, M.; Braun, M.; Fischer, G.; Zhang, K.; Liu, J. O., Acalcineurin-independent mechanism of angiogenesis inhibition by anon-immunosuppressive Cyclosporin Aanalog. J. Pharmacol. Exp. Ther. 2011, DOI:10.1124/jpet.111.18085).
(In general: Incorporation of labelled thymidine or its analogues reports DNA synthesis.)

In a further assay the test system is VEGFR2. Put plainly: VEGFR2 glycosylation in HUVEC (Western blot scoring). The note with it: for Glycosylation (2 μM dose): VEGFR2 hypoglycosylation score in HUVEC, 24 h; for VEGFR2 glycosylation defect: data not shown. It counts as cell-based, human. On the procedure: VEGFR2 hypoglycosylation was scored either robust (++), intermediate (+), or absent (−) (FIG. 6).
HUVEC were seeded at 5×10^4 per well of a 6-well plate in 3 mL of media. After an overnight recovery, the media was replaced with 2 mL fresh media and the analogs were added from 200× stocks in DMSO. Following a 24-h incubation, the media was aspirated and 2×SDS sample buffer was added to the cells which were incubated on ice for 10 min and then boiled for 10 min. […] Following three washes in TBS-T, the membrane was incubated with anti-rabbit horseradish peroxidase conjugated IgG (GE Healthcare) (1:5000-1:10000 dilution) in 1% BSA in TBS-T. The membranes were washed three times in TBS-T, incubated for 1-5 minutes with ECL substrate (Immobilon Wester, Milipore) and visualized (Kodak Image Staion 440 CF).
For orientation: Immunoblotting shows a protein as a band on a membrane.

The subject of assay [1] is MB cultures derived from Ptch−/+; p53−/− mice. Put plainly: Medulloblastoma (MB) proliferation assay. The settings on record: for MB Proliferation (IC50/IC50 Itra): mouse medulloblastoma cultures, 96 h, relative to itraconazole; for inhibition of MB proliferation: FIG. 9A. The format is cell-based, mouse. An excerpt: These cultures were derived from Ptch^−/+; p53^−/− mice that spontaneously develop medulloblastoma associated with ligand independent Hh pathway activation.
MB cultures were derived from mouse Ptch^−/+; p53^−/− MB grown as hind-flank allografts in nude mice (Harlan). Briefly, tumors were mechanically disrupted and made into single cell suspensions by two passages through a 70 μm nylon filter. Cells were pelleted by centrifugation and resuspended in PBS pH 7.4 twice. The cell suspension was then subjected to centrifugation at 1000×g for 25 min over a ficoll gradient. The viable cell layer formed at the ficoll boundary was then collected, suspended in PBS, and pelleted by centrifugation. The resulting pellet was then suspended and cultured as “neurospheres” in Neurobasal Media-A supplemented with retinoic acid deficient B-27 extract (NBMedia). Cells were cultured for three passages, with neurospheres disaggregated using Accumax (Innovative Cell Technologies) between passages.
Cultured MB neurospheres were disaggregated as described and 1×10^4 cells were seeded into wells of a 96-well assay plate in NBMedia and exposed to multiple analogue concentrations: Relative cell numbers following a 96-h incubation were quantified by CellTiter 96® AQueous One Solution Cell Proliferation Assay (Promega) per manufacturer's recommendations using a SpectraMax M2e spectrophotometer and SoftMax Pro software (Molecular Devices). Data was analyzed using Prism5 (GraphPad Software) and IC50 and IC90 values were determined from dose-response curves fitted to mean corrected absorbance normalized to control treatment.

The test system of the next assay is Gli1 transcript. Put plainly: Quantification of Gli1 transcript by TaqMan analysis in MB cells (Hh pathway). It counts as cell-based, mouse. The settings on record: for Gli I Inhibition (IC90 Prolif. dose): Gli1 transcript fold induction score, MB cells exposed 24 h at the IC90 for MB proliferation; for inhibition of Gli1 transcript levels: established MB cultures, FIG. 9B. The text has this: Inhibitors of the Hh pathway are known to inhibit MB cell proliferation. However, MB cell proliferation is also affected by drugs with targets other than Hh signaling.
Following drug exposure, cells were washed in PBS and pelleted by centrifugation at 300×g. Cell pellets were lysed in Trizol reagent (Invitrogen). Total RNA was separated and collected in the aqueous phase following centrifugation of lysate in the presence of chloroform. Total RNA was ethanol precipitated and purified over RNeasy Mini Kit (Qiagen) filter columns per manufacturer's recommendations. Transcript levels were quantified using gene-specific TaqMan primer/probe sets and the StepOne Plus Real-Time PCR system (Applied Biosystems) on cDNA reverse transcribed using the QuantiTect Reverse Transcription Kit (Qiagen) per manufacturers' recommendations. Results were quantified using StepOne Plus software v2.1 (Applied Biosystems) and were expressed as fold induction relative to control samples using the A ΔCt (2^−ΔΔCt) method with actin as an internal control. The primer/probe set (Applied Biosystems) for TaqMan PCR for mouse Gli-1 was Mm00494645_m1, and for mouse actin was Mm00607939_s1.

Consider 16 molecules from US11028078B2 (The Johns Hopkins University, priority 2011, dated 2021).

For `CCC(C)n1ncn(-c2ccc(N3CCN(c4ccc(OCC5CO[C@@](Cn6cncn6)(c6ccc(Cl)cc6Cl)O5)cc4)CC3)cc2)c1=O` (stereo partly shown) [Compound 46a], the IC50 in the assay on HUVEC (HUVEC) came out at 155 nM.

In the case of `O=c1[nH]ncn1-c1ccc(N2CCN(c3ccc(OC[C@H]4CO[C@](Cn5cncn5)(c5ccc(Cl)cc5Cl)O4)cc3)CC2)cc1` [Compound 17a, 4-(4-(4-(4-(((2R,4S)-2-((1H-1,2,4-triazol-1-yl)methyl)-2-(2,4-dichlorophenyl)-1,3-dioxolan-4-yl)methoxy)phenyl)piperazin-1-yl)phenyl)-1H-1,2,4-triazol-5(4H)-one], the “Proliferation (IC50/IC50 Itra)” value in the assay on HUVEC (HUVEC) is 2.78. Moreover, the “Glycosylation (2 μM dose)” value with VEGFR2 is on record as “−”. In addition, the “MB Proliferation (IC50/IC50 Itra)” value in assay [1] stood at 0.89. Further, the “Gli I Inhibition (IC90 Prolif. dose)” value in the assay with Gli1 transcript was “++ (≤0.15)”.

Regarding `CC(=O)N1CCN(c2ccc(OCC3COC(Cn4ccnc4)(c4ccc(Cl)cc4Cl)O3)cc2)CC1` (stereo not shown) [ketoconazole, reference compound], in the assay with HUVEC, the “inhibition of HUVEC proliferation” value was “do not inhibit proliferation”. Also, the “VEGFR2 glycosylation defect” value with VEGFR2 is recorded as “fail to induce the VEGFR2 glycosylation defect”.

On to `Cn1ncn(-c2ccc(N3CCN(c4ccc(OC[C@@H]5CO[C@@](Cn6cncn6)(c6ccc(Cl)cc6Cl)O5)cc4)CC3)cc2)c1=O` (relative stereo) [Compound 7a, cis-(2S,4R)-4-[4-[4-[4-[[2-(2,4-Dichlorophenyl)-2-(UH-1,2,4-triazol-1-ylmethyl)-1,3-dioxolan-4-yl]methoxy]phenyl]-lpiperazinyl]phenyl]-2,4-dihydro-2-methyl-3H-1,2,4-triazol-3-one], for which the “Proliferation (IC50/IC50 Itra)” value in the assay with HUVEC (HUVEC) is 4.00. Moreover, in the assay on VEGFR2, the “Glycosylation (2 μM dose)” value was “−”. For the same molecule, the “MB Proliferation (IC50/IC50 Itra)” value in assay [1] is 2.71. The “Gli I Inhibition (IC90 Prolif. dose)” value in the assay with Gli1 transcript is “− (≥0.45)”.

Turning to `CCn1ncn(-c2ccc(N3CCN(c4ccc(OC[C@@H]5CO[C@@](Cn6cncn6)(c6ccc(Cl)cc6Cl)O5)cc4)CC3)cc2)c1=O` (relative stereo) [Compound 7b, cis-(2S,4R)-4-[4-[4-[4-[[2-(2,4-Dichlorophenyl)-2-(1H-1,2,4-triazol-1-ylmethyl)-1,3-dioxolan-4-yl]methoxy]phenyl]-lpiperazinyl]phenyl]-2,4-dihydro-2-ethyl-3H-1,2,4-triazol-3-one], the “Proliferation (IC50/IC50 Itra)” value with HUVEC (HUVEC) was found to be 2.94. Besides, the “Glycosylation (2 μM dose)” value in the assay on VEGFR2 is “−”. Also, the “MB Proliferation (IC50/IC50 Itra)” value in assay [1] amounted to 1.62. Also, in the assay on Gli1 transcript, the “Gli I Inhibition (IC90 Prolif. dose)” value is given as “− (≥0.45)”.

In the case of `N#CCCCCCn1ncn(-c2ccc(N3CCN(c4ccc(OCC5COC(Cn6cncn6)(c6ccc(Cl)cc6Cl)O5)cc4)CC3)cc2)c1=O` [Compound 7u, cis-(2S,4R)-4-[4-[4-[4-[[2-(2,4-Dichlorophenyl)-2-(1H-1,2,4-triazol-1-ylmethyl)-1,3-dioxolan-4-yl]methoxy]phenyl]-]piperazinyl]phenyl]-2,4-dihydro-2-(5-cyanopentyl)-3H-1,2,4-triazol-3-one], the “Proliferation (IC50/IC50 Itra)” value with HUVEC (HUVEC) stood at 0.18. For the same molecule, in the assay on VEGFR2, the “Glycosylation (2 μM dose)” value is given as “++”. In addition, the “MB Proliferation (IC50/IC50 Itra)” value in assay [1] was found to be 0.84. Also, the “Gli I Inhibition (IC90 Prolif. dose)” value in the assay on Gli1 transcript is listed as “+ (0.16 to 0.44)”.

Regarding `[N-]=[N+]=NCCCCCCn1ncn(-c2ccc(N3CCN(c4ccc(OCC5COC(Cn6cncn6)(c6ccc(Cl)cc6Cl)O5)cc4)CC3)cc2)c1=O` [Compound 7p, cis-(2S,4R)-4-[4-[4-[4-[[2-(2,4-Dichlorophenyl)-2-(1H-1,2,4-triazol-1-ylmethyl)-1,3-dioxolan-4-yl]methoxy]phenyl]-lpiperazinyl]phenyl]-2,4-dihydro-2-(6-azidohexyl)-3H-1,2,4-triazol-3-one], the “Proliferation (IC50/IC50 Itra)” value in the assay with HUVEC (HUVEC) was found to be 0.30. For the same molecule, in the assay on VEGFR2, the “Glycosylation (2 μM dose)” value is recorded as “+”. Moreover, in assay [1], the “MB Proliferation (IC50/IC50 Itra)” value is 0.70. The “Gli I Inhibition (IC90 Prolif. dose)” value in the assay on Gli1 transcript is reported as “+ (0.16 to 0.44)”.

Turning to `CC(C)N1CCN(c2ccc(OCC3COC(Cn4cncn4)(c4ccc(Cl)cc4Cl)O3)cc2)CC1` (stereo not shown) [terconazole, reference compound], the “inhibition of HUVEC proliferation” value with HUVEC is reported as “do not inhibit proliferation”. In addition, the “VEGFR2 glycosylation defect” value in the assay with VEGFR2 was “fail to induce the VEGFR2 glycosylation defect”.

For `CC1(CCCCCCCn2ncn(-c3ccc(N4CCN(c5ccc(OCC6COC(Cn7cncn7)(c7ccc(Cl)cc7Cl)O6)cc5)CC4)cc3)c2=O)N=N1` [Compound 7x, cis-(2S,4R)-4-[4-[4-[4-[[2-(2,4-Dichlorophenyl)-2-(1H-1,2,4-triazol-1-ylmethyl)-1,3-dioxolan-4-yl]methoxy]phenyl]-lpiperazinyl]phenyl]-2,4-dihydro-2-(7-(3-methyl-3H-diazirin-3-yl)heptyl)-3H-1,2,4-triazol-3-one], the “Proliferation (EC50/IC50 Itra)” value in the assay with HUVEC (HUVEC, footnote g: EC50 of analog relative to IC50 of itraconazole) is on record as 1.1^g. Moreover, the “Glycosylation (2 μM dose)” value with VEGFR2 is on record as “−”. For the same molecule, the “MB Proliferation (IC50/IC50 Itra)” value in assay [1] was determined as 1.18. Besides, in the assay on Gli1 transcript, the “Gli I Inhibition (IC90 Prolif. dose)” value is “− (≥0.45)”.

Turning to “cis-(2R,4S)-4-[4-[4-[4-[[2-(2,4-Dichlorophenyl)-2-(1H-1,2,4-triazol-1-ylmethyl)-1,3-dioxolan-4-yl]methoxy]phenyl]-lpiperazinyl]phenyl]-2,4-dihydro-2-(pent-4-ynyl)-3H-1,2,4-triazol-3-one [Compound 7r]”, the “Proliferation (IC50/IC50 Itra)” value in the assay with HUVEC (HUVEC) is recorded as 0.14. The “Glycosylation (2 μM dose)” value in the assay on VEGFR2 is reported as “−”. The “MB Proliferation (IC50/IC50 Itra)” value in assay [1] is on record as 0.71. The “Gli I Inhibition (IC90 Prolif. dose)” value in the assay with Gli1 transcript is “++ (≤0.15)”.

Take `CC[C@@H](C)n1ncn(-c2ccc(N3CCN(c4ccc(OCC5CO[C@@](Cn6cncn6)(c6ccc(Cl)cc6Cl)O5)cc4)CC3)cc2)c1=O` (stereo partly shown) [Itraconazole C, reference compound]: the IC50 in the assay with HUVEC (HUVEC) is 152 nM.

Consider `CS(=O)(=O)c1ccc(C(=O)Nc2ccc(Cl)c(-c3ccccn3)c2)c(Cl)c1` [GDC-0449, reference compound], for which the “inhibition of MB proliferation” value in assay [1] is “Dose-dependent inhibition”. The “inhibition of Gli1 transcript levels” value in the assay with Gli1 transcript is listed as “Dose-dependent inhibition”.

As for `O=C(c1ccccc1)c1ccc(OCCCCCCn2ncn(-c3ccc(N4CCN(c5ccc(OCC6COC(Cn7cncn7)(c7ccc(Cl)cc7Cl)O6)cc5)CC4)cc3)c2=O)cc1` [Compound 7q, cis-(2S,4R)-4-[4-[4-[4-[[2-(2,4-Dichlorophenyl)-2-(1H-1,2,4-triazol-1-ylmethyl)-1,3-dioxolan-4-yl]methoxy]phenyl]-piperazinyl]phenyl]-2,4-dihydro-2-(6-(4-benzoylphenoxy)hexyl)-3H-1,2,4-triazol-3-one], the “Glycosylation (2 μM dose)” value in the assay with VEGFR2 is recorded as “−”. The “MB Proliferation (IC50/IC50 Itra)” value in assay [1] was 0.8. Further, the “Gli I Inhibition (IC90 Prolif. dose)” value in the assay with Gli1 transcript is reported as “− (≥0.45)”.

Consider HhAntag [reference compound], for which, in assay [1], the “inhibition of MB proliferation” value was “Dose-dependent inhibition”. In the assay with Gli1 transcript, the “inhibition of Gli1 transcript levels” value is “Dose-dependent inhibition”.

`CCC(C)n1ncn(-c2ccc(N3CCN(c4ccc(OCC5CO[C@@](Cn6cncn6)(c6ccc(Cl)cc6Cl)O5)nc4)CC3)c(C)c2)c1=O` (stereo partly shown) [Compound 47a]: in the assay on HUVEC (HUVEC), the IC50 came out at 155 nM.

Consider `CCC(C)n1ncn(-c2ccc(N3CCN(c4ccc(OCC5CO[C@](Cn6cncn6)(c6ccc(Cl)cc6Cl)O5)cc4)CC3)cc2)c1=O` (stereo partly shown) [Compound 46b], for which the IC50 in the assay with HUVEC (HUVEC) stood at 236 nM.
